Results taken from the kinase profiling compilation of Christmann-Franck et al. (2016).

Experiments:
Assay in all cases: KINOMEscan competition binding
Settings in all cases: compound 10.0 µM
MAPKAPK2 (human) = MAPKAPK2 (human) (UniProt P49137)
FRK (human) = FRK (human) (UniProt P42685)
PKN2 (human) = PKN2 (human) (UniProt Q16513)
SLK (human) = SLK (human) (UniProt Q9H2G2)
DCLK3 (human) = DCLK3 (human) (UniProt Q9C098)
EPHA2 (human) = EPHA2 (human) (UniProt P29317)
TGFBR2 (human) = TGFBR2 (human) (UniProt P37173)
Sequence of TGFBR2 (human) (P37173 whole entry, looked up): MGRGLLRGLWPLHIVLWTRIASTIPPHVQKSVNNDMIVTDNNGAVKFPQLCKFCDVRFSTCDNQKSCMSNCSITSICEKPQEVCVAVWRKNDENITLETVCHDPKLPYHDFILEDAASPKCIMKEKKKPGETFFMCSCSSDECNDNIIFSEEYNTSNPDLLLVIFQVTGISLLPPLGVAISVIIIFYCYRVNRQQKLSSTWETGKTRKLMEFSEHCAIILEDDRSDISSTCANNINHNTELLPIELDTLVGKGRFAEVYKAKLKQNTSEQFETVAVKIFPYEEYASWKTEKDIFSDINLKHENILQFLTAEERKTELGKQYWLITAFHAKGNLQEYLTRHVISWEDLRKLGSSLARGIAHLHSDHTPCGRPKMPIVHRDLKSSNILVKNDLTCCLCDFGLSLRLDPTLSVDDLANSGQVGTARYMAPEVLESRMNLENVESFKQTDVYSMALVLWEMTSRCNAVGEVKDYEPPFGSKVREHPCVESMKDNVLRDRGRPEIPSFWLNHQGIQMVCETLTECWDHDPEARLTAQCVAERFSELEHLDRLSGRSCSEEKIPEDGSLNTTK

[1] = system: FGFR3 (human), P22607 [G697C]
STK39 (human) = STK39 (human) (UniProt Q9UEW8)
TNK2 (human) = TNK2 (human) (UniProt Q07912)
Sequence of TNK2 (human) (Q07912 whole entry, looked up): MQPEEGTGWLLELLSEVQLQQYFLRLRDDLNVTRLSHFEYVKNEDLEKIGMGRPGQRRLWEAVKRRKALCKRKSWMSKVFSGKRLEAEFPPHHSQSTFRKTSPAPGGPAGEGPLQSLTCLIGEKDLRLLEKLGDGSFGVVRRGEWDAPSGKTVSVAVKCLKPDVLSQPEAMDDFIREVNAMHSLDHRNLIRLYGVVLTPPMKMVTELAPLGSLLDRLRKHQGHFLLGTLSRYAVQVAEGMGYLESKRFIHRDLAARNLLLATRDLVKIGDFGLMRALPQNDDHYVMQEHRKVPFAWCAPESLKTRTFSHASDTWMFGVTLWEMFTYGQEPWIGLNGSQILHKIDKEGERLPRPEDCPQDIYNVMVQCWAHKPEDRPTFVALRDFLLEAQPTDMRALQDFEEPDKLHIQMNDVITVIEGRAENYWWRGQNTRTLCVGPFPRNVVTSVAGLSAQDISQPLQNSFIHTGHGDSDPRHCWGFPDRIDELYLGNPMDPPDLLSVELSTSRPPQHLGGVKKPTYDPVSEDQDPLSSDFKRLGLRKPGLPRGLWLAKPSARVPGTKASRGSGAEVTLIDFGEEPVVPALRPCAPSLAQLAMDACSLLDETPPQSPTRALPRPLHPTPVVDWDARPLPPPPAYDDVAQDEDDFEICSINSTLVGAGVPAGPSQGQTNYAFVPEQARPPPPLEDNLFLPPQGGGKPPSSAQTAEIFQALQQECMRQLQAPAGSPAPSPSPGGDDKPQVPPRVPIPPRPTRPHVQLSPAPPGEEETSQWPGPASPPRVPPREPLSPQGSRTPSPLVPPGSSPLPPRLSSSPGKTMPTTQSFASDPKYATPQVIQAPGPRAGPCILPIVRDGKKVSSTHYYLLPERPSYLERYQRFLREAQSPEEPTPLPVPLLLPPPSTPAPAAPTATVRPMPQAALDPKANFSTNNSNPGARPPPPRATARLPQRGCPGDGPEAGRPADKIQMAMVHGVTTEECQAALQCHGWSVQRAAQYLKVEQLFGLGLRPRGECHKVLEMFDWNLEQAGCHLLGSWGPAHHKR

MARK4 (human) = MARK4 (human) (UniProt Q96L34)
PHKG1 (human) = PHKG1 (human) (UniProt Q16816)
Sequence of PHKG1 (human) (Q16816 whole entry, looked up): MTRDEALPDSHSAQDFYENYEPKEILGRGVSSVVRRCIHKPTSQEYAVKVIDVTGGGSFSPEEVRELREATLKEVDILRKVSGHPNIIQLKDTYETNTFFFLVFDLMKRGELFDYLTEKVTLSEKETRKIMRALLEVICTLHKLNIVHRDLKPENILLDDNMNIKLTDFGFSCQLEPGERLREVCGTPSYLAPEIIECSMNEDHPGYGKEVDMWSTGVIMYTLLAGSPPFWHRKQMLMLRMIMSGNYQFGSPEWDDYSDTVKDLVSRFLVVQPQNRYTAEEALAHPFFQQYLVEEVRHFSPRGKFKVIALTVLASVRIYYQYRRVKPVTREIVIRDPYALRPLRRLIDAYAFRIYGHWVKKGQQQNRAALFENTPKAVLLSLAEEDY

MKNK1 (human) = MKNK1 (human) (UniProt Q9BUB5)
PHKG2 (human) = PHKG2 (human) (UniProt P15735)
PAK7 (human) = PAK7 (human) (UniProt Q9P286)
ADCK3 (human) = ADCK3 (human) (UniProt Q8NI60)
AURKA (human) = AURKA (human) (UniProt O14965)
STK4 (human) = STK4 (human) (UniProt Q13043)
MARK3 (human) = MARK3 (human) (UniProt P27448)
ABL2 (human) = ABL2 (human) (UniProt P42684)
[2] = system: RET (human), P07949 [V804L]
CDK14 (human) = CDK14 (human) (UniProt O94921)
INSR (human) = INSR (human) (UniProt P06213)
NEK11 (human) = NEK11 (human) (UniProt Q8NG66)
EPHB3 (human) = EPHB3 (human) (UniProt P54753)
MAP2K5 (human) = MAP2K5 (human) (UniProt Q13163)
PKN3 (M.tuberculosis) = PKN3 (M.tuberculosis) (UniProt Q6P5Z2)
MAP3K15 (human) = MAP3K15 (human) (UniProt Q6ZN16)
NEK1 (human) = NEK1 (human) (UniProt Q96PY6)
STK16 (human) = STK16 (human) (UniProt O75716)
PRKD3 (human) = PRKD3 (human) (UniProt O94806)
CSNK2A2 (human) = CSNK2A2 (human) (UniProt P19784)
DAPK1 (human) = DAPK1 (human) (UniProt P53355)
[3] = molecular target: JAK1 JH2 pseudokinase (human) (UniProt P23458)
CHEK1 (human) = CHEK1 (human) (UniProt O14757)
RPS6KA2 KD1 (human) = RPS6KA2 KD1 (human) (UniProt Q15349)
CDK19 (human) = CDK19 (human) (UniProt Q9BWU1)
Sequence of CDK19 (human) (Q9BWU1 whole entry, looked up): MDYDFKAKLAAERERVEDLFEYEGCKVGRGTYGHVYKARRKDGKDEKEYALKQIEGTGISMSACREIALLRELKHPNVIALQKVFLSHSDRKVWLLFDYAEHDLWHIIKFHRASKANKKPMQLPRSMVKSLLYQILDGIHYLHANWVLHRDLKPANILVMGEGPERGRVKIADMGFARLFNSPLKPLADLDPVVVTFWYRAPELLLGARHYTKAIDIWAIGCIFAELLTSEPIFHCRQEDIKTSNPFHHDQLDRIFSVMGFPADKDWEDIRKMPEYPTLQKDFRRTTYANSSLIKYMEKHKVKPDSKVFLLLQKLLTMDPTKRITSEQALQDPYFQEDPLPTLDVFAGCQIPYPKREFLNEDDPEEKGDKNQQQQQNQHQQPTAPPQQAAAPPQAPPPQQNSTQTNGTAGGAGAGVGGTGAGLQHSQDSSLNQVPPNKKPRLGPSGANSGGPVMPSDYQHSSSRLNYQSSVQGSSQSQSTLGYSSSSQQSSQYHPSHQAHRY

SRPK1 (human) = SRPK1 (human) (UniProt Q96SB4)
KDR (human) = KDR (human) (UniProt P35968)
Sequence of KDR (human) (P35968 whole entry, looked up): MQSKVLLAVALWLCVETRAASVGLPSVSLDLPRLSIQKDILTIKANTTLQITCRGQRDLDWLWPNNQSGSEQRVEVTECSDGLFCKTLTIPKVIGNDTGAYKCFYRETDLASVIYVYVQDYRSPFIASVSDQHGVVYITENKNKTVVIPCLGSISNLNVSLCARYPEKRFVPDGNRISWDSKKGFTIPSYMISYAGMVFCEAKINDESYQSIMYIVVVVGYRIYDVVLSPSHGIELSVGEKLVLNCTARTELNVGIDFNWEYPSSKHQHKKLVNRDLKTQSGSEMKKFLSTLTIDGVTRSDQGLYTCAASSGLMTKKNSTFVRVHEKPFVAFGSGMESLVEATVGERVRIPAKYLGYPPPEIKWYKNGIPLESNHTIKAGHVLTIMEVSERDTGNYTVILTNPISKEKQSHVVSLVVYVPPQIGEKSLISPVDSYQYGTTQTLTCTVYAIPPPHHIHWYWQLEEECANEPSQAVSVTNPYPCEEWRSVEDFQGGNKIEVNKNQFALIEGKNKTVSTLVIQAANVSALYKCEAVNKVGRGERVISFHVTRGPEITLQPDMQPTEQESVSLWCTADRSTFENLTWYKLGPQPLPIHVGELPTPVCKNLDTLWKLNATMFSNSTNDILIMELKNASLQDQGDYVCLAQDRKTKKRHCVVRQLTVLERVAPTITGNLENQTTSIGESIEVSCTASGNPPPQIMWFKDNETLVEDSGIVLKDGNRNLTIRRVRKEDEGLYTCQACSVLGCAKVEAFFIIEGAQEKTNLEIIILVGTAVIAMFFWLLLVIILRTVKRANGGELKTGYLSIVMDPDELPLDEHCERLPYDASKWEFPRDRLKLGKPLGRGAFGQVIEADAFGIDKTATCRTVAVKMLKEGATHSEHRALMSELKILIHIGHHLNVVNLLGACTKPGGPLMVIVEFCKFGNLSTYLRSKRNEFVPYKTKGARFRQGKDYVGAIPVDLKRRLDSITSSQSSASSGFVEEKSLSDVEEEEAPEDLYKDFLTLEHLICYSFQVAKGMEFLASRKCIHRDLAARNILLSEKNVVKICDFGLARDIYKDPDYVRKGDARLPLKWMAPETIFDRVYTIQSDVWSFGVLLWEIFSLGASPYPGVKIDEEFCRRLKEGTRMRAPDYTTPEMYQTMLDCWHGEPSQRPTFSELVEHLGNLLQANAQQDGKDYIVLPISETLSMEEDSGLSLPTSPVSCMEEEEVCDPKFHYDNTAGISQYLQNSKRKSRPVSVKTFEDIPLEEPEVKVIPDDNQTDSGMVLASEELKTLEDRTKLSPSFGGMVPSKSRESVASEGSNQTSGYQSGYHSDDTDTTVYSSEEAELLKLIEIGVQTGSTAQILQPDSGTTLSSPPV

RIOK2 (human) = RIOK2 (human) (UniProt Q9BVS4)

Sequence of MAPKAPK2 (human) (P49137 whole entry, looked up): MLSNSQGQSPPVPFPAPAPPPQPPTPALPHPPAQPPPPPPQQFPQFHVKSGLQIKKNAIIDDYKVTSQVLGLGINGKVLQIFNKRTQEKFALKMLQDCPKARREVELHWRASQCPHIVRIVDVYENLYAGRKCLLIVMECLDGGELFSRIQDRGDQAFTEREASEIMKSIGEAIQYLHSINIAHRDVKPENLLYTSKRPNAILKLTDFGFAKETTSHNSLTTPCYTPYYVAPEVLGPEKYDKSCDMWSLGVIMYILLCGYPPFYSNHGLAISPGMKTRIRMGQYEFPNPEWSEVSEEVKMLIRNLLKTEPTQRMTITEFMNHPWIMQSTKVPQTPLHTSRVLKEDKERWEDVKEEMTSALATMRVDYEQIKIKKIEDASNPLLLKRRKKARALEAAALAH
Sequence of DCLK3 (human) (Q9C098 whole entry, looked up): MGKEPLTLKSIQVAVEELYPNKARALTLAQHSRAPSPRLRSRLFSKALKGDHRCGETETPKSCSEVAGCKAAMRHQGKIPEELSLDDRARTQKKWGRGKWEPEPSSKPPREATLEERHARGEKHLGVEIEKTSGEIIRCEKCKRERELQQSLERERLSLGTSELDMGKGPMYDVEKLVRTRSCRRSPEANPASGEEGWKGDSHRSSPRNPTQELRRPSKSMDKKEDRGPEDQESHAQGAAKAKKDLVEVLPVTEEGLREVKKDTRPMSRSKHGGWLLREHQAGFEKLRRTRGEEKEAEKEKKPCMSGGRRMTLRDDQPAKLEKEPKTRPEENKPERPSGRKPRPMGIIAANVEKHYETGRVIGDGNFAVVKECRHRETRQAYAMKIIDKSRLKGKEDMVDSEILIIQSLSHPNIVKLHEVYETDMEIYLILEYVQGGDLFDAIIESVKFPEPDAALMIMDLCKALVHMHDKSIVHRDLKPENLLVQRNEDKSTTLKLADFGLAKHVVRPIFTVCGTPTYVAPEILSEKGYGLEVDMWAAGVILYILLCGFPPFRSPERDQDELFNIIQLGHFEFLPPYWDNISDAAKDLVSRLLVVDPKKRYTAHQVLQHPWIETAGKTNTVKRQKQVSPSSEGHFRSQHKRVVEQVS

SMILES	kinase still bound, per cent of control (MAPKAPK2 (human)) [%]	kinase still bound, per cent of control (FRK (human)) [%]	kinase still bound, per cent of control (PKN2 (human)) [%]	kinase still bound, per cent of control (SLK (human)) [%]	kinase still bound, per cent of control (DCLK3 (human)) [%]	kinase still bound, per cent of control (EPHA2 (human)) [%]	kinase still bound, per cent of control (TGFBR2 (human)) [%]	kinase still bound, per cent of control [1] [%]	kinase still bound, per cent of control (STK39 (human)) [%]	kinase still bound, per cent of control (TNK2 (human)) [%]	kinase still bound, per cent of control (MARK4 (human)) [%]	kinase still bound, per cent of control (PHKG1 (human)) [%]	kinase still bound, per cent of control (MKNK1 (human)) [%]	kinase still bound, per cent of control (PHKG2 (human)) [%]	kinase still bound, per cent of control (PAK7 (human)) [%]	kinase still bound, per cent of control (ADCK3 (human)) [%]	kinase still bound, per cent of control (AURKA (human)) [%]	kinase still bound, per cent of control (STK4 (human)) [%]	kinase still bound, per cent of control (MARK3 (human)) [%]	kinase still bound, per cent of control (ABL2 (human)) [%]	other results
CC1=C(C(=O)Nc2cc3cn[nH]c3cc2F)C(c2ccc(C(F)(F)F)cc2)CC(=O)N1 (stereo not given)	100	53	52	100	70	84	85	84	86	88	100	100	100	92	79	76	46	100	100	86	kinase still bound, per cent of control [2]: 39%; kinase still bound, per cent of control (CDK14 (human)): 89%; kinase still bound, per cent of control (INSR (human)): 96%; kinase still bound, per cent of control (NEK11 (human)): 100%; kinase still bound, per cent of control (EPHB3 (human)): 84%; kinase still bound, per cent of control (MAP2K5 (human)): 71%; kinase still bound, per cent of control (PKN3 (M.tuberculosis)): 92%; kinase still bound, per cent of control (MAP3K15 (human)): 77%; kinase still bound, per cent of control (NEK1 (human)): 91%; kinase still bound, per cent of control (STK16 (human)): 100%; kinase still bound, per cent of control (PRKD3 (human)): 81%; kinase still bound, per cent of control (CSNK2A2 (human)): 86%; kinase still bound, per cent of control (DAPK1 (human)): 81%; kinase still bound, per cent of control [3]: 100%; kinase still bound, per cent of control (CHEK1 (human)): 100%; kinase still bound, per cent of control (RPS6KA2 KD1 (human)): 95%; kinase still bound, per cent of control (CDK19 (human)): 80%; kinase still bound, per cent of control (SRPK1 (human)): 100%; kinase still bound, per cent of control (KDR (human)): 88%; kinase still bound, per cent of control (RIOK2 (human)): 86%
N#C/C(=C1/Nc2ccccc2S1)c1ccnc(NCCc2cccnc2)n1	100	100	100	100	100	80	100	100	100	91	100	100	97	78	76	91	100	100	100	100	kinase still bound, per cent of control [2]: 100%; kinase still bound, per cent of control (CDK14 (human)): 100%; kinase still bound, per cent of control (INSR (human)): 92%; kinase still bound, per cent of control (NEK11 (human)): 100%; kinase still bound, per cent of control (EPHB3 (human)): 100%; kinase still bound, per cent of control (MAP2K5 (human)): 0.8%; kinase still bound, per cent of control (PKN3 (M.tuberculosis)): 4.6%; kinase still bound, per cent of control (MAP3K15 (human)): 100%; kinase still bound, per cent of control (NEK1 (human)): 57%; kinase still bound, per cent of control (STK16 (human)): 13%; kinase still bound, per cent of control (PRKD3 (human)): 84%; kinase still bound, per cent of control (CSNK2A2 (human)): 1%; kinase still bound, per cent of control (DAPK1 (human)): 32%; kinase still bound, per cent of control [3]: 2.6%; kinase still bound, per cent of control (CHEK1 (human)): 100%; kinase still bound, per cent of control (RPS6KA2 KD1 (human)): 100%; kinase still bound, per cent of control (CDK19 (human)): 100%; kinase still bound, per cent of control (SRPK1 (human)): 70%; kinase still bound, per cent of control (KDR (human)): 100%; kinase still bound, per cent of control (RIOK2 (human)): 2.4%
O=c1[nH]c2ccccc2n1C1CCN(Cc2ccc(-c3nc4cc5[nH]cnc5cc4nc3-c3ccccc3)cc2)CC1	100	100	92	59	91	100	100	89	100	100	99	100	77	100	58	100	68	77	72	100	kinase still bound, per cent of control [2]: 85%; kinase still bound, per cent of control (CDK14 (human)): 100%; kinase still bound, per cent of control (INSR (human)): 64%; kinase still bound, per cent of control (NEK11 (human)): 100%; kinase still bound, per cent of control (EPHB3 (human)): 100%; kinase still bound, per cent of control (MAP2K5 (human)): 72%; kinase still bound, per cent of control (PKN3 (M.tuberculosis)): 78%; kinase still bound, per cent of control (MAP3K15 (human)): 100%; kinase still bound, per cent of control (NEK1 (human)): 100%; kinase still bound, per cent of control (STK16 (human)): 92%; kinase still bound, per cent of control (PRKD3 (human)): 100%; kinase still bound, per cent of control (CSNK2A2 (human)): 92%; kinase still bound, per cent of control (DAPK1 (human)): 100%; kinase still bound, per cent of control [3]: 79%; kinase still bound, per cent of control (CHEK1 (human)): 100%; kinase still bound, per cent of control (RPS6KA2 KD1 (human)): 51%; kinase still bound, per cent of control (CDK19 (human)): 75%; kinase still bound, per cent of control (SRPK1 (human)): 99%; kinase still bound, per cent of control (KDR (human)): 86%; kinase still bound, per cent of control (RIOK2 (human)): 79%
